From patent publication US20230136297A1, “Methods Of Treating Fabry Disease In Patients Having A Mutation In The GLA Gene” (Amicus Therapeutics, Inc., priority 2020, published 2023)
Where a chain is given by its changes, count along the chain named.

Columns and labels:
Test in all cases: α-Gal A activity in lysates of transfected HEK-293 cells ± migalastat (HEK assay)
Assay type in all cases: cell-based
[1] = molecular target: T1, α-Gal A mutant form G360A (Homo sapiens, UniProt P06280, G360A)
T1 construct: expressed in transfected cells; host or cells: HEK-293
T1 sequence (P06280 32-429 G360A): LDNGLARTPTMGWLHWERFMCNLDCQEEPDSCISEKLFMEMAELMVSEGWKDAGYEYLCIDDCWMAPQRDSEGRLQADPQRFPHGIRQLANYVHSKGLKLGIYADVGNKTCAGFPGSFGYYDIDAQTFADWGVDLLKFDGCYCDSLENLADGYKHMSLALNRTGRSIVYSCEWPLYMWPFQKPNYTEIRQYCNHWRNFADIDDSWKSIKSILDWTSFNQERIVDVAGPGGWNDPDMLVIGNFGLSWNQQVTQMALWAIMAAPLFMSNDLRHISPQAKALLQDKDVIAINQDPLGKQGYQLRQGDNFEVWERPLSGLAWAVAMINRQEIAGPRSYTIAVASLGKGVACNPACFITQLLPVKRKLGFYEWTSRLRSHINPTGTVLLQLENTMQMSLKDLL
Description: (§1) Such mutations or variants are also referred to herein as “HEK assay amenable” mutations or variants.
(§2) The α-Gal A activity is expressed as the nmoles of free 4-MU released per milligram of protein per hour (nmol/mg/hr).

[2] = molecular target: T2, α-Gal A mutant form G375A (Homo sapiens, UniProt P06280, G375A)
T2 construct: expressed in transfected cells; host or cells: HEK-293
T2 sequence (P06280 32-429 G375A): T1 sequence (P06280 32-429 G360A) with A329G, G344A
Description: as §1, §2

α-Gal A mutant form N53Y = molecular target: T3, α-Gal A mutant form N53Y (Homo sapiens, UniProt P06280, N53Y)
T3 construct: expressed in transfected cells; host or cells: HEK-293
T3 sequence (P06280 32-429 N53Y): T1 sequence (P06280 32-429 G360A) with N22Y, A329G
Description: as §1, §2

[3] = molecular target: T4, α-Gal A mutant form R196T (Homo sapiens, UniProt P06280, R196T)
T4 construct: expressed in transfected cells; host or cells: HEK-293
T4 sequence (P06280 32-429 R196T): T1 sequence (P06280 32-429 G360A) with R165T, A329G
Description: as §1, §2

α-Gal A mutant form R38S = molecular target: T5, α-Gal A mutant form R38S (Homo sapiens, UniProt P06280, R38S)
T5 construct: expressed in transfected cells; host or cells: HEK-293
T5 sequence (P06280 32-429 R38S): T1 sequence (P06280 32-429 G360A) with R7S, A329G
Description: as §1, §2

[4] = 10 μM migalastat minus baseline
[5] = HEK-293 lysates, 10 μM migalastat 5 days, mean ± SEM

OC[C@H]1NC[C@H](O)[C@@H](O)[C@H]1O [migalastat, (2R,3S,4R,5S)-2-(hydroxymethyl) piperdine-3,4,5-triol]
Absolute increase (% WT) [1, 4]: 7.5 % WT | Relative increase ([1]; 10 μM migalastat ÷ baseline): 1.28 | 10 μM migalastat α-Gal A activity [1, 5]: 13443 ± 1048 nmol/mg/h | 10 μM migalastat α-Gal A activity (% WT) [1, 5]: 31.3 ± 2.6 % WT | Absolute increase (% WT) [2, 4]: 12 % WT | Relative increase ([2]; 10 μM migalastat ÷ baseline): 1.23 | 10 μM migalastat α-Gal A activity [2, 5]: 24212 ± 1520 nmol/mg/h | 10 μM migalastat α-Gal A activity (% WT) [2, 5]: 66.8 ± 2.4 % WT | Absolute increase (% WT) (α-Gal A mutant form N53Y; [4]): 34.5 % WT | Relative increase (α-Gal A mutant form N53Y; 10 μM migalastat ÷ baseline): 2.04 | 10 μM migalastat α-Gal A activity (α-Gal A mutant form N53Y; [5]): 22871 ± 2192 nmol/mg/h | 10 μM migalastat α-Gal A activity (% WT) (α-Gal A mutant form N53Y; [5]): 68.5 ± 2.6 % WT | Absolute increase (% WT) [3, 4]: 22.4 % WT | Relative increase ([3]; 10 μM migalastat ÷ baseline): 1.48 | 10 μM migalastat α-Gal A activity [3, 5]: 26217 ± 1611 nmol/mg/h | 10 μM migalastat α-Gal A activity (% WT) [3, 5]: 69.5 ± 2.6 % WT | Absolute increase (% WT) (α-Gal A mutant form R38S; [4]): 26.6 % WT | Relative increase (α-Gal A mutant form R38S; 10 μM migalastat ÷ baseline): 1.29 | 10 μM migalastat α-Gal A activity (α-Gal A mutant form R38S; [5]): 30928 ± 1484 nmol/mg/h | 10 μM migalastat α-Gal A activity (% WT) (α-Gal A mutant form R38S; [5]): 100 ± 9.3 % WT
